Measured values as given in patent US20090042882A1, “SUBSTITUTED ACETAMIDES AS MODULATORS OF THE EP2 RECEPTOR” (priority 2007, published 2009).

What was measured:
[1] = test system: cumulus-oocyte complexes (cumulus expansion); assay: cumulus expansion assay in vitro; format: cell-based, mice
Experimental: Folliculogenesis is induced in immature female mice (strain: CD1 (ICR) from Charles River) at an age of 14-18 days by a single dose (intraperitoneal) of 10 I.U. of PMSG (Pregnant Mare Serum Gonadotropine; Sigma G-4877, Lot 68H0909). 47-50 hours after the injection, the ovaries are removed and the cumulus-oocyte complexes are removed. The cumulus complex is not yet expanded at this stage.
The cumulus-oocyte complexes are then incubated with prostaglandin E2 (PGE2) (0.3 μM), vehicle control (ethanol) or test substances for 20-24 hours. Medium: alpha-MEM medium with 0.1 mM IBMX, pyruvates (0.23 mM) glutamines (2 mM), pen/strep 100 IU/ml pen. and 100 μg/ml strep.) and HSA (8 mg/ml)). Cumulus expansion is then established through the division into four stages (according to Vanderhyden et al. Dev Biol. 1990 August; 140 (2):307-317).

[2] = molecular target: T1, human prostaglandin E2 (subtype EP2) receptor (Homo sapiens, UniProt P43116); assay: cAMP antagonism assay; format: cell-based; conditions: in the presence of PGE2
T1 construct: host or cells: cells in a culture plate
Experimental: (§1) The binding of PGE2 to the EP2 subtype of the human PGE2 receptor induces activation of membrane-associated adenylate cyclases and leads to the formation of cAMP. In the presence of the phosphodiesterase inhibitor IBMX, cAMP which has accumulated due to this stimulation and been released by cell lysis is employed in a competitive detection method. In this assay, the cAMP in the lysate competes with cAMP-XL665 for binding of an Eu cryptate-labelled anti-cAMP antibody.
(§2) The two signals are measured in a suitable measuring instrument with a time lag, i.e. after the background fluorescence has declined.
(§3) The substance solutions (0.75 μl) introduced into an assay plate and 30% DMSO are dissolved in 16 μl of a KRSB+IBMX stimulation solution (1× Krebs-Ringer Bicarbonate Buffer; Sigma-Aldrich # K-4002; including 750 μM 3-isobutyl-1-methylxanthine Sigma-Aldrich # I-7018), and then 15 μl thereof are transferred into a media-free cell culture plate which has been washed with KRSB shortly beforehand.
After preincubation at room temperature (RT) for 30 minutes, 5 μl of a 4×PGE2 solution (11 nM) are added, and incubation is carried out in the presence of the agonist at RT for a further 60 min (volume: ˜20 μl) before the reaction is then stopped by adding 5 μl of lysis buffer and incubated at RT for a further 20 min (volume: ˜25 μl). The cell lysate is then transferred into a measuring plate and measured in accordance with the manufacturer's information (cyclic AMP kit Cisbio International #62AMPPEC).

[3] = molecular target: T1, human prostaglandin E2 (subtype EP2) receptor; assay: cellular cAMP agonism assay; format: cell-based
Experimental: as §1, §2, §3
After incubation at room temperature (RT; volume: ˜15 μl) for 60 minutes, the reaction is then stopped by adding 5 μl of lysis buffer and incubated at RT for a further 20 min (volume: ˜20 μl). The cell lysate is then transferred into a measuring plate and measured in accordance with the manufacturer's information (cyclic AMP kit Cisbio International #62AMPPEC).

T1 sequence (P43116 whole entry): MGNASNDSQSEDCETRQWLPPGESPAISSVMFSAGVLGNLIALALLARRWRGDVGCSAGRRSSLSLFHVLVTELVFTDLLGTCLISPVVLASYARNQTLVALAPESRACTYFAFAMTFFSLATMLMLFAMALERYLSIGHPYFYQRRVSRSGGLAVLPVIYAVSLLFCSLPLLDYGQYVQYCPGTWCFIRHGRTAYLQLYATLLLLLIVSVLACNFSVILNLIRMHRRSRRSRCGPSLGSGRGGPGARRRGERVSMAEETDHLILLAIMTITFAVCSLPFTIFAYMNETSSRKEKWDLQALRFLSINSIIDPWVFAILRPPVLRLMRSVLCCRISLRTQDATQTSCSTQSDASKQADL

IC50 [2] | effect in the cellular agonism test [3] | SMILES | inhibition of cumulus expansion ([1]; concentration 100-200 μM, competing with the natural EP2 receptor agonist PGE2) | inhibition of cumulus expansion ([1]; concentration 10 μM (10 to 20 times lower than AH 6809), competing with PGE2)
 |  | CC(C)Oc1ccc2c(=O)c3cc(C(=O)O)ccc3oc2c1 [AH 6809, reference compound] | ~30% | 
1.1 µM |  | COc1ccc(OCC(=O)NCCc2c(C)[nH]c3c(F)ccc(C)c23)cc1 [Example 1, N-[2-(7-Fluoro-2,4-dimethyl-1H-indol-3-yl)ethyl]2-(4-methoxyphenoxy)acetamide] |  | 
2.7 µM |  | Cc1[nH]c2c(F)ccc(C)c2c1CCNC(=O)COc1ccccc1 [Example 5, N-[2-(7-Fluoro-2,4-dimethyl-1H-indol-3-yl)-ethyl]-2-phenoxy-acetamide] |  | 
1.3 µM | no inhibition | Cc1[nH]c2c(F)ccc(C)c2c1CCNC(=O)COc1ccc(Cl)cc1 [Example 6, 2-(4-Chlorophenoxy)-N-[2-(7-fluoro-2,4-dimethyl-1H-indol-3-yl)ethyl]-acetamide] |  | 30%
